Test results: patent US6406679B1, “Use of HL-60-related lectins in drug delivery and detection of lectin-expressing cells” (Incyte Pharmaceuticals, Inc., priority 1992, dated 2002)
“And” between values parts separate entries of the source, which are not always exact repeats. Equal values may be shown once.

How the values were obtained:
[1] = system: Rat lymph node lymphocytes; experiment: Agglutination of cells treated with lectin; format: cell-based; conditions: 250 μg/ml lectin, on ice 30 min
Protocol: (§1) To analyze the mechanism of action of the inventive lectins as immunomodulators, a test was devised to discover whether these lectins bind lymphocytes and/or T-cells to endothelial cells. Thin sections of tissue containing inflamed rat brain vascular endothelium were prepared. Rat lymph node lymphocytes and human T-cells of the Jurkat line (10^7/ml in Dulbecco's modified Eagle medium (MEM) with 5% fetal bovine serum (FBS)) were treated with 250 μg/ml of the lectin of Example 1, with the lectin plus 1 mM beta-lactose, or with no additions and subsequently were placed on ice for 30 min. […] These effects were not observed when beta-lactose was added or when there were no additions.

[2] = system: human T-cells of the Jurkat line; experiment: Agglutination of cells treated with lectin; format: cell-based; conditions: 250 μg/ml lectin, on ice 30 min
Protocol: as §1

BALB/c mice = experiment: Primary immune response: serum antibody levels; format: in vivo, mouse
Protocol: The effect of coadministration of lectin on the B-cell repertoire mounted as a primary response to immunization was also tested directly by antibody formation in the sera. Immunoassays for antibody content for the various antigens were performed as follows:
For immunization with Torpedo acetylcholine receptor, microtiter: wells were coated overnight with 100 μl of a solution containing 5 μg/ml of purified receptor as prepared in Example 8, Part A, and incubated with serum (diluted 1/25) for 3 hours at 37° C. After washing, the plates were incubated for 3 hours at 37° C. with alkaline phosphatase-conjugated goat anti-mouse immunoglobulins. The plates were then washed extensively and incubated for 1 hour at 37° C. with […] ethanolamine buffer. The reaction was stopped by addition of 25 μl of 3 M NaOH, and the binding of the labeled antibody was measured in an ELISA microreader at 405 nm. […]
For antibodies against mouse AChR, antibodies were determined using as antigen a complex between a partially purified normal mouse skeletal muscle receptor and ^125I-alpha-bungarotoxin. […]
. […] The reaction was stopped by addition of 25 μl of 3 M NaOH, and the binding of the labeled antibody was measured in an ELISA microreader at 405 nm. […]
. Blood was obtained after 3 days and again after 1, 2, 3 and 4 weeks and antibody levels were determined as described above.

established T-cell lines = experiment: Lectin added to established T-cell lines; format: cell-based, rat; conditions: lectin added in vitro
Excerpt: In a follow-up experiment, T-cell lines were selected from the draining lymph nodes.

Lewis rats = experiment: Rat heart transplantation (Brown Norway into Lewis); format: in vivo; conditions: for Onset of Rejection: d − 3 to d + 9, heart allograft
Protocol: The studies reported here relate to Brown Norway rat tissue transplanted into Lewis rats. This model, a highly histo-incompatible donor/recipient pair, provides a very stringent test with predictive value in human transplantation. Known general immunosuppressive agents show immunosuppressive activity in these models. Several forums of this model are used in the studies reported here.
These studies were performed in the laboratory of Dr. Randy Morris of Stanford University. Whole rat hearts were grafted into host rats which were examined daily thereafter for signs of rejection.
A control group comprised twelve recipients treated daily i.v. only with buffer control. The graft survival times were: 6d (x4), 7d (x7), and 8d, giving a mean survival of […]+/−0.6d (SD). The final day of survival is defined as the day on which the donor heart ceased to contract as assessed by lack of obvious palpitations and as confirmed by direct visualization at laparotomy.
Five recipients were treated with the recombinant lectin. All animals were pretreated with 1 mg/kg i.v. lectin on days −3, −2 and −1. The first two animals were then treated postoperatively with 1 mg/kg/d i.v. with lectin from day 1 until graft rejection. The second three animals were treated in the postoperative period from day 1 until graft rejection with 2 mg/kg/d i.v. of lectin. Graft survivals were 9 and 10d for the first group of rats, and 9, 10 and 11d for the second group. No dramatic increase in survival was seen by doubling the dose of lectin in group two in the postoperative period. Therefore, graft survival times of both groups were combined for statistical analysis. When graft survival was analyzed, lectin treatment produced a mean graft survival of 9.8+/−0.84d (SD), +/−0.38d (SEM) with a 95% confidence limit. Using the one-tailed Mann-Whitney U-test to compare the differences between the graft survival times for the saline and lectin-treated groups, a P value of 0.00096 was obtained.

Human blood cells = experiment: Staining of lectin-pretreated human blood cells with fluoresceinated antibodies (histogram analyses); format: cell-based
Excerpt: Human blood cells were pretreated with the inventive HL-60 lectin and then stained with fluoresceinated antibody having several different specificities. Control cells were not pretreated with lectin. […] However, the effect of lectin treatment on M1 and M3 macrophages was significant.

[3] = HLA-DR, lectin-pretreated cells
[4] = NK(L-A), lectin-pretreated cells

## Lectin: Soluble 14 kD β-galactoside-binding HL-60/placenta lectin of FIG. 1 (SEQ ID NO:2), prepared recombinantly in E. coli
[1]
  Clumping of rat lymphocytes: moderately clumped
[2]
  Agglutination of T-cells: severely agglutinated
BALB/c mice; any dose, FIG. 7
  primary immune response to pneumococcal polysaccharide (T-independent antigen): No effect
BALB/c mice; higher doses of lectin (15 and 25 μg), FIGS. 6, 8, 9
  primary immune response to T-dependent antigens: significantly lowered
Established T-cell lines
  effect on established T-cell lines: no inhibitory effect
Lewis rats; 1 mg/kg i.v. days −3 to −1, then 1 mg/kg/d i.v. until rejection
  Graft survival, individual animals: 9 days and 10 days
Lewis rats; 1 mg/kg i.v. days −3 to −1, then 2 mg/kg/d i.v. until rejection
  Graft survival, individual animals: 9 days and 10 days and 11 days
Lewis rats; 1 mg/kg
  Onset of Rejection: 9.8 ± .8 days
Lewis rats; 2 mg/kg
  Onset of Rejection: 9.8 ± .8 days
Lewis rats; 1-2 mg/kg/d i.v.
  toxicity as might be manifested by weight loss: no noticeable toxicity
Lewis rats; both lectin dose groups combined, five recipients
  mean graft survival (SD): 9.8 ± 0.84 days
Human blood cells; CD3+, lectin-pretreated cells
  +FL1: 458
  +mode: 416
  percent: 77.8%
Human blood cells; CD4+, lectin-pretreated cells
  +FL1: 181.5
  +mode: 151
  percent: 46.4%
Human blood cells; [3]
  +FL1: 614
  +mode: 432
  percent: 13.3%
Human blood cells; M1, lectin-pretreated cells
  +FL1: 403
  +mode: 387
  percent: 46.1%
Human blood cells; M1 macrophages, lectin vs control
  reduction of the percent of positive cells: 33%
Human blood cells; M3, lectin-pretreated cells
  +FL1: 549
  +mode: 517
  percent: 45.1%
Human blood cells; M3 macrophages, lectin vs control
  reduction of the percent of positive cells: 26%
Human blood cells; [4]
  +FL1: 106
  +mode: 94.7
  percent: 10.8%
Human blood cells; lectin vs control
  changes for CD3+, CD4+, NK(L-A) or HLA-DR cell markers: No significant changes
